In general, mortality refers to the percentage killed.

The structures appear in SMILES notation.

For the first test, the system named is Phaedon cochleariae (Mustard Beetle). Kind of test: Test 3 a): leaf disc spray test, Phaedon cochleariae larvae. The format is in vivo. The following applies: Phaedon cochleariae, foliar, read-out: mortality of larvae of Phaedon cochleariae. The source says:
(§1) One or more dilutions of the compounds to be tested were made in 50% aqueous acetone.
(§2) a) Test species: Plutella xylostella (Diamond-back Moth) and Phaedon cochleariae (Mustard Beetle)
(§3) Turnip leaf discs were set in agar in petri-dishes and infected with 10 larvae (2nd instar Plutella or 3rd instar Phaedon). Four replicate dishes were assigned to each treatment and were sprayed under a Potter Tower with the appropriate test dilution. Four or five days after treatment the dishes were removed from the constant temperature (25° C.) room in which they had been held and the mean percentage mortalities of larvae were determined.
For the compound `CCOC(=O)Nc1c(C#N)c(Cl)nn1-c1c(Cl)cc(C(F)(F)F)cc1Cl` [Compound 182, 3-Chloro-1-(2,6-dichloro-4-trifluoromethylphenyl)-4-cyano-5-ethoxycarbonylaminopyrazole], the mortality at 5 ppm is 100%. For the compound `CCNS(=O)(=O)c1c(C(F)(F)F)nn(-c2c(Cl)cc(C(F)(F)F)cc2Cl)c1N` [Compound 198, 5-Amino-1-(2,6-dichloro-4-trifluoromethylphenyl)-4-(N-ethylsulphamoyl)-3-trifluoromethylpyrazole], the mortality at 5 ppm is 100%. On the same count and under the same terms, the value for `CNS(=O)(=O)c1c(C(F)(F)F)nn(-c2c(Cl)cc(C(F)(F)F)cc2Cl)c1N` [Compound 199, 5-Amino-1-(2,6-dichloro-4-trifluoromethylphenyl)-4-(N-methylsulphamoyl)-3-trifluoromethylpyrazole] was 100%; that for `C[Si](C)(C)c1c(C#N)c(C(F)(F)F)nn1-c1c(Cl)cc(C(F)(F)F)cc1Cl` [Compound 205, 4-Cyano-1-(2,6-dichloro-4-trifluoromethylphenyl)-3-trifluoromethyl-5-trimethylsilylpyrazole] was 100%; that for `C[S+]([O-])c1c(C#N)c(C(F)(F)F)nn1-c1c(Cl)cc(C(F)(F)F)cc1Cl` (stereo not shown) [Compound 220, 4-Cyano-1-(2,6-dichloro-4-trifluoromethylphenyl)-5-methylsulphinyl-3-trifluoromethylpyrazole] was 100%. Same read-out and setting: the value for `CCS(=O)(=O)c1c(C(F)(F)F)nn(-c2c(Cl)cc(C(F)(F)F)cc2Cl)c1N` [Compound 221, 5-Amino-1-(2,6-dichloro-4-trifluoromethylphenyl)-4-ethylsulphonyl-3-trifluoromethylpyrazole] was 100%.

Still in this test, the particulars now being: Tables 1-3; % mortality at 10 ppm.
Take `N#Cc1c(C(F)(F)F)nn(-c2c(Cl)cc(C(F)(F)F)cc2Cl)c1NC(=O)C1CC1` [Compound 147, 4-Cyano-1-(2,6-dichloro-4-trifluoromethylphenyl)-5-cyclopropanecarbonamido-3-trifluoromethylpyrazole]: the “Phaedon % m 10 ppm” value is 100%.

The next test relates to Plutella xylostella (Diamond-back Moth). As to the kind of experiment: whole plant or invertebrate. It counts as in vivo. The settings on record: foliar, read-out: mortality of larvae of Plutella xylostella.
Excerpt: as §1, §2, §3
As to `CC(=O)N(C(=O)C(C)(C)C)c1c(C#N)c(C(F)(F)F)nn1-c1c(Cl)cc(C(F)(F)F)cc1Cl` [Compound 176, 4-Cyano-1-(2,6-dichloro-4-trifluoromethylphenyl)-5-(N-acetyl-N-trimethylacetylamino)-3-trifluoromethylpyrazole], the mortality at 500 ppm is 100%. Still for that read-out and setting: the value for `CCC(=O)N(C(=O)C(C)(C)C)c1c(C#N)c(C(F)(F)F)nn1-c1c(Cl)cc(C(F)(F)F)cc1Cl` [Compound 177, 4-Cyano-1-(2,6-dichloro-4-trifluoromethylphenyl)-5-(N-propionyl-N-trimethylacetylamino)-3-trifluoromethylpyrazole] was 100%; that for `CC(C)(C)C(=O)Nc1c(C#N)c(Cl)nn1-c1c(Cl)cc(C(F)(F)F)cc1Cl` [Compound 180, 3-Chloro-1-(2,6-dichloro-4-trifluoromethylphenyl)-4-cyano-5-trimethylacetylaminopyrazole] was 100%. Still for that read-out and setting: the same measure for `CCOC(=O)N(C(=O)OCC)c1c(C#N)c(Cl)nn1-c1c(Cl)cc(C(F)(F)F)cc1Cl` [Compound 181, 3-Chloro-1-(2,6-dichloro-4-trifluoromethylphenyl)-4-cyano-5-bis(ethoxycarbonyl)aminopyrazole]: 100%. The same measure, in the same setting: the same measure for `CCOC(=O)N(C(C)=O)c1c(C#N)c(C(F)(F)F)nn1-c1c(Cl)cc(C(F)(F)F)cc1Cl` [Compound 184, 5-(N-Acetyl-N-ethoxycarbonylamino)-4-cyano-1-(2,6-dichloro-4-trifluoromethylphenyl)-3-trifluoromethylpyrazole]: 100%; for `Nc1c(I)c(C(F)(F)F)nn1-c1c(Cl)cc(C(F)(F)F)cc1Cl` [Compound 189, 5-Amino-1-(2,6-dichloro-4-trifluoromethylphenyl)-4-iodo-3-trifluoromethylpyrazole]: 100%.

Source of the values: patent US6372774B1, “Derivatives of N-phenylpyrazoles” (Rhone-Poulenc Agriculture Ltd., priority 1985, dated 2002).
